Results reported in ChEMBL document CHEMBL1140148, “Structure-activity studies on a series of a 2-aminopyrimidine-containing histamine H4 receptor ligands” (J Med Chem, 2008).
One block for each molecule: values may come before it.

Tests used:
[1] = target: Histamine H4 receptor (Rattus norvegicus) (UniProt Q91ZY1); settings: HEK293
[2] = target: T1, Histamine H4 receptor (Homo sapiens, UniProt Q9H3N8); settings: HEK293
[3] = target: Histamine H4 receptor (Rattus norvegicus, UniProt Q91ZY1); experiment: Agonist activity at rat histamine H4 receptor expressed in HEK293 cells coexpressing Gqi5 protein assessed as calcium flux by FLIPR assay; type: functional, cell-based
[4] = target: Histamine H4 receptor (Rattus norvegicus) (UniProt Q91ZY1); experiment: Agonist activity at rat histamine H4 receptor expressed in HEK293 cells coexpressing Gqi5 protein assessed as calcium flux by FLIPR assay relative to histamine; type: functional, cell-based
[5] = target: T1, Histamine H4 receptor; experiment: Agonist activity at human histamine H4 receptor expressed in HEK293 cells coexpressing Gqi5 protein assessed as calcium flux by FLIPR assay relative to histamine; type: functional, cell-based
[6] = target: T1, Histamine H4 receptor; experiment: Agonist activity at human histamine H4 receptor expressed in HEK293 cells coexpressing Gqi5 protein assessed as calcium flux by FLIPR assay; type: functional, cell-based
[7] = tested on: Rattus norvegicus; experiment: Plasma concentration in rat at 30 umol/kg, ip; type: ADME, organism-based; settings: in vivo
[8] = tested on: Rattus norvegicus; experiment: Plasma concentration in rat at 100 umol/kg, ip; type: ADME, organism-based; settings: in vivo
[9] = Protein binding in ip dosed rat plasma; type: ADME, organism-based; settings: read-out: PPB (converted)
[10] = tested on: Rattus norvegicus; experiment: Plasma concentration in rat at 80 umol/kg, ip; type: ADME, organism-based; settings: in vivo
[11] = tested on: Rattus norvegicus; experiment: Antiinflammatory activity against carrageenan-induced hyperalgesia in rat assessed as increase in paw withdrawal at 300 umol/kg, ip relative to control; type: functional
[12] = tested on: Rattus norvegicus; experiment: Plasma concentration in rat at 300 umol/kg, ip; type: ADME, organism-based; settings: in vivo
[13] = Terminal volume of distribution in rat at 10 mg/kg, iv; type: ADME, organism-based; set-up: dose 10 mg/kg, route intravenous; settings: in vivo, read-out: Vbeta
[14] = Terminal volume of distribution in mouse at 5 mg/kg, iv; type: ADME, organism-based; set-up: dose 5 mg/kg, route intravenous; settings: in vivo, read-out: Vbeta
[15] = Cmax in rat at 10 mg/kg, iv; type: ADME, organism-based; set-up: dose 10 mg/kg, route intravenous; settings: in vivo
[16] = Cmax in mouse at 5 mg/kg, iv; type: ADME, organism-based; set-up: dose 5 mg/kg, route intravenous; settings: in vivo
[17] = Half life in rat at 10 mg/kg, iv; type: ADME, organism-based; set-up: dose 10 mg/kg, route intravenous; settings: in vivo
[18] = Half life in mouse at 5 mg/kg, iv; type: ADME, organism-based; set-up: dose 5 mg/kg, route intravenous; settings: in vivo
[19] = Tmax in rat at 10 mg/kg, po; type: ADME, organism-based; set-up: dose 10 mg/kg, route oral; settings: in vivo
[20] = Tmax in mouse at 20 mg/kg, po; type: ADME, organism-based; set-up: dose 20 mg/kg, route oral; settings: in vivo
[21] = Bioavailability in rat at 10 mg/kg, po; type: ADME, organism-based; settings: in vivo
[22] = Bioavailability in mouse at 20 mg/kg, po; type: ADME, organism-based; settings: in vivo
[23] = Cmax in rat at 10 mg/kg, po; type: ADME, organism-based; set-up: dose 10 mg/kg, route oral; settings: in vivo
[24] = Cmax in mouse at 20 mg/kg, po; type: ADME, organism-based; set-up: dose 20 mg/kg, route oral; settings: in vivo
[25] = Half life in rat at 10 mg/kg, po; type: ADME, organism-based; set-up: dose 10 mg/kg, route oral; settings: in vivo
[26] = Half life in mouse at 20 mg/kg, po; type: ADME, organism-based; set-up: dose 20 mg/kg, route oral; settings: in vivo
[27] = target: Histamine H3 receptor (Homo sapiens, UniProt Q9Y5N1); experiment: Binding affinity to human histamine H3 receptor
[28] = tested on: Mus musculus; experiment: Antiinflammatory activity in zymosan-induced peritonitis in sc dosed BALB/c mouse model assessed as decrease in myeloperoxidase activity in peritoneal lavage; type: functional
[29] = tested on: Mus musculus; experiment: Antiinflammatory activity in ip dosed CD1/ICR mouse assessed as reduction of clobenpropit-induced itching; type: functional
[30] = Plasma concentration in mouse at 25 umol/kg, ip after 30 mins; type: ADME, organism-based
[31] = tested on: Rattus norvegicus; experiment: Antiinflammatory activity against carrageenan-induced thermal hyperalgesia in rat assessed as increase in paw withdrawal at 100 umol/kg, ip relative to control; type: functional
[32] = tested on: Rattus norvegicus; experiment: Antiinflammatory activity against carrageenan-induced thermal hyperalgesia in ip dosed rat assessed as increase in paw withdrawal; type: functional

Chain of Histamine H4 receptor (Rattus norvegicus, UniProt Q91ZY1) (Q91ZY1 whole entry): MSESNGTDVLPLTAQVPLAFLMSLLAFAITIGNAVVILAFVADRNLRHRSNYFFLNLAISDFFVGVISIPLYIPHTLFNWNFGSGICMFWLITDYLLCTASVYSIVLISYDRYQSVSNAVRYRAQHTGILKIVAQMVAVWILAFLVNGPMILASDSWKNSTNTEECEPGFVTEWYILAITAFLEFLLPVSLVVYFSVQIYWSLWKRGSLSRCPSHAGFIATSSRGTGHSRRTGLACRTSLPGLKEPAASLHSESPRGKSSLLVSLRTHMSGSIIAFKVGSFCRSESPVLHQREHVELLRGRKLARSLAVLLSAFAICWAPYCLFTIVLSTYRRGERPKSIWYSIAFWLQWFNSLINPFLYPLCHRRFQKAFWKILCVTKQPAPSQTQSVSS
Chain of Histamine H4 receptor (Rattus norvegicus) (Q91ZY1 whole entry): as above
Chain of Histamine H3 receptor (Q9Y5N1 whole entry): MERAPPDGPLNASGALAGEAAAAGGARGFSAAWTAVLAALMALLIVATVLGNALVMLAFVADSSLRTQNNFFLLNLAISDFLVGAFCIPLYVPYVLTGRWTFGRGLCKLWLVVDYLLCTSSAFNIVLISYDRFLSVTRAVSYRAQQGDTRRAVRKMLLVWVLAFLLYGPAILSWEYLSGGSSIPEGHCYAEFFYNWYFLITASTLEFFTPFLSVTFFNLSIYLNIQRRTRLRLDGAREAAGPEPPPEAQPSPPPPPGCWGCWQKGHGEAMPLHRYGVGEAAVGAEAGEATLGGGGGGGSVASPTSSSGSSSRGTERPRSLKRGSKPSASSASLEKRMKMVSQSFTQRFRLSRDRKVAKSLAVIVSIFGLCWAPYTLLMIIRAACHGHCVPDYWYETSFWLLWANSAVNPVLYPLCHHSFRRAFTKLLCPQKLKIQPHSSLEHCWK

SMILES: CN1CCN(c2nc(N)ncc2N)CC1
- EC50 [3]: 42.7 nM
- Efficacy [4]: 88%
- Efficacy [5]: 38%
- EC50 [6]: 33.9 nM

SMILES: CN1CCN(c2cc(C(C)(C)C)nc(N(C)C)n2)CC1
- EC50 [3]: 18200 nM
- Efficacy [4]: 88%
- Efficacy [5]: 100%
- EC50 [6]: 11500 nM

SMILES: CN1CCN(c2nc(N)nc(-c3ccc(C#N)cc3)c2-c2ccccc2)CC1
- pKb [1]: 5.29
- pKb [2]: 5.69

SMILES: N#Cc1ccc(-c2cc(N3CCN(CC4CC4)CC3)nc(N)n2)cc1
- pKb [1]: 4.54
- pKb [2]: 5.53

SMILES: CN1CCN(c2cc(-c3ccc(-c4ccccc4)cc3)nc(N)n2)CC1
- pKb [1]: 6.03
- pKb [2]: 6.29

SMILES: CN1CCN(c2cc(-c3cccc(-c4ccccc4)c3)nc(N)n2)CC1
- pKb [1]: 6.38
- pKb [2]: 6.85

SMILES: COc1nc(N2CCN(C)CC2)cc(C(C)(C)C)n1
- EC50 [3]: 4680 nM
- Efficacy [4]: 90%
- Efficacy [5]: 43%
- EC50 [6]: 1200 nM

The next lines start with results.

- pKb [1]: 5.74
- pKb [2]: 5.68
SMILES: CN1CCN(c2cc(-n3cnc(-c4ccccc4)c3)nc(N)n2)CC1

- pKb [1]: 6.47
- pKb [2]: 6.77
SMILES: CN1CCN(c2cc(N(C)Cc3ccccc3)nc(N)n2)CC1

- pKb [1]: 6.1
- pKb [2]: 6.96
SMILES: CN1CCN(c2cc(N(C)c3ccccc3)nc(N)n2)CC1

- pKb [1]: 7.27
- pKb [2]: 7.81
SMILES: CN1CCN(c2cc(-c3cccc4ccccc34)nc(N)n2)CC1

- Cp [7]: 432 ng/mL
- Cp [8]: 1454 ng/mL
- fraction unbound [9]: 0.28
- Cp [10]: 1200 ng/mL
- Cp [12]: 4135 ng/mL
- Vd [13]: 37 L/kg
- Vd [14]: 24 L/kg
- Cmax [15]: 1140 ng/mL
- Cmax [16]: 560 ng/mL
- half-life [17]: 102 min
- half-life [18]: 42 min
- Tmax [19]: 15 min
- Tmax [20]: 1.33 h
- bioavailability [21]: 47%
- bioavailability [22]: 24%
- Cmax [23]: 220 ng/mL
- Cmax [24]: 140 ng/mL
- half-life [25]: 150 min
- half-life [26]: 84 min
- Ki [27]: 2240 nM
- concentration at 0.5 h [30]: 860 ng/mL
SMILES: CN1CCN(C(=O)c2cc3cc(Cl)ccc3[nH]2)CC1 [JNJ-7777120]
- Activity [11]: 96%
- ED50 [28]: 61 µmol/kg
- ED50 [29]: 25 µmol/kg
- Activity [31]: 49%
- ED50 [32]: 80 µmol/kg

- EC50 [3]: 93.3 nM
- Efficacy [4]: 72%
- Efficacy [5]: 32%
- EC50 [6]: 26.9 nM
SMILES: COc1ncccc1-c1cc(N2CCN(C)CC2)nc(N)n1
